Data reported in PubChem BioAssay AID248 (DTP/NCI, 2004).
Inconclusive results and toxic doses are left out. Cut-off read from the data, not from the text of the source: active = T/C of 150% or more; inactive = T/C below 125%.

Tested on: L1210 leukemia ip in BDF1 mice, survival T/C
Assay: NCI In Vivo Anticancer Drug Screen. Data for tumor model L1210 Leukemia (intraperitoneal) in B6D2F1 (BDF1) mice
Conditions: endpoint: mean survival time, higher = longer survival
Summary of the method: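 Ratio derived from survival: compound-dosed mice over vehicle-dosed mice, all bearing a transplantable tumor.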

[1] = dose: 100.0 mg/kg/injection, schedule: Q01DX009 (ip), vehicle: saline
[2] = dose: 100.0 mg/kg/injection, schedule: Q04DX003 (ip), vehicle: saline
[3] = dose: 200.0 mg/kg/injection, schedule: Q01DX009 (ip), vehicle: saline
[4] = dose: 200.0 mg/kg/injection, schedule: Q04DX003 (ip), vehicle: saline
[5] = dose: 400.0 mg/kg/injection, schedule: Q04DX003 (ip), vehicle: saline
[6] = dose: 100.0 mg/kg/injection, schedule: Q01DX001 (ip), vehicle: saline
[7] = dose: 200.0 mg/kg/injection, schedule: Q01DX001 (ip), vehicle: saline
[8] = dose: 400.0 mg/kg/injection, schedule: Q01DX001 (ip), vehicle: saline
[9] = dose: 200.0 mg/kg/injection, schedule: Q04DX002 (ip), vehicle: Klucel (hydroxypropylcellulose) (HPC)
[10] = dose: 100.0 mg/kg/injection, schedule: Q01DX001 (ip), vehicle: carboxymethylcellulose (CMC)
[11] = dose: 200.0 mg/kg/injection, schedule: Q01DX001 (ip), vehicle: carboxymethylcellulose (CMC)
[12] = dose: 400.0 mg/kg/injection, schedule: Q01DX001 (ip), vehicle: carboxymethylcellulose (CMC)

Measured: T/C

NC(=O)c1cc(=O)n(C2OC(CO)C(O)C2O)c2ncnc(N)c12 (stereo not given)
inactive: dose: 12.5 mg/kg/injection, schedule: Q01DX005 (ip), vehicle: water 104 % of control | dose: 25.0 mg/kg/injection, schedule: Q01DX005 (ip), vehicle: water 90 % of control | dose: 50.0 mg/kg/injection, schedule: Q01DX005 (ip), vehicle: water 95 % of control | dose: 100.0 mg/kg/injection, schedule: Q01DX005 (ip), vehicle: water 98 % of control | dose: 200.0 mg/kg/injection, schedule: Q01DX005 (ip), vehicle: water 95 % of control

O=S(=O)(CS(=O)(=O)c1ccccc1)c1ccccc1
inactive: dose: 75.0 mg/kg/injection, schedule: Q01DX009 (ip), vehicle: Klucel (hydroxypropylcellulose) (HPC) 102 % of control | dose: 150.0 mg/kg/injection, schedule: Q01DX009 (ip), vehicle: Klucel (hydroxypropylcellulose) (HPC) 98 % of control | dose: 300.0 mg/kg/injection, schedule: Q01DX009 (ip), vehicle: Klucel (hydroxypropylcellulose) (HPC) 95 % of control

O=C(Cn1cc(F)c(=O)[nH]c1=O)c1ccco1
inactive: [1] 90 % of control | [2] 96 % of control | [3] 91 % of control | [4] 93 % of control | dose: 400.0 mg/kg/injection, schedule: Q01DX009 (ip), vehicle: saline 88 % of control | [5] 88 % of control

c1cc(N2CCOCC2)cc(NC2CCCCC2)n1
inactive: dose: 5.0 mg/kg/injection, schedule: Q01DX001 (ip), vehicle: saline 95 % of control | dose: 10.0 mg/kg/injection, schedule: Q01DX001 (ip), vehicle: saline 104 % of control | dose: 20.0 mg/kg/injection, schedule: Q01DX001 (ip), vehicle: saline 97 % of control | dose: 40.0 mg/kg/injection, schedule: Q01DX001 (ip), vehicle: saline 103 % of control | dose: 80.0 mg/kg/injection, schedule: Q01DX001 (ip), vehicle: saline 98 % of control

CCCCCCCCNC(C(=O)c1ccc(Cl)cc1)c1ccc(Cl)cc1 (stereo not given)
inactive: dose: 50.0 mg/kg/injection, schedule: Q01DX009 (ip), vehicle: saline 92 % of control | [1] 91 % of control | [2] 98 % of control | [3] 97 % of control | [4] 102 % of control | [5] 90 % of control

OC1(Cc2nccc3ccccc23)CCN(Cc2ccccc2)CC1
inactive: dose: 100.0 mg/kg/injection, schedule: Q04DX003 (ip), vehicle: carboxymethylcellulose (CMC) 89 % of control | dose: 200.0 mg/kg/injection, schedule: Q04DX003 (ip), vehicle: carboxymethylcellulose (CMC) 98 % of control

CCN(CC)c1cc(C)c2cc(Cc3ccc4nc(N(CC)CC)cc(C)c4c3)ccc2n1
inactive: [6] 90 % of control | [7] 96 % of control | [8] 90 % of control

O=c1[nH]cnc2nc(Br)[nH]c12
inactive: [6] 104 % of control | [7] 95 % of control | [8] 98 % of control

O=C(Nc1ccccc1)OC/C=C\c1ccccc1
inactive: [9] 90 % of control | dose: 400.0 mg/kg/injection, schedule: Q04DX002 (ip), vehicle: Klucel (hydroxypropylcellulose) (HPC) 93 % of control

CC(=O)C1CCCC(=O)/C=C/C(=O)O1 (stereo not given)
inactive: dose: 100.0 mg/kg/injection, schedule: Q04DX002 (ip), vehicle: Klucel (hydroxypropylcellulose) (HPC) 92 % of control | [9] 100 % of control

COc1ccc(NP2(=O)OCC(C)(N)CO2)cc1 (stereo not given)
inactive: [10] 91 % of control | [11] 96 % of control | [12] 91 % of control

Cc1ccc(/C=C2\NC(=O)NC2=O)cc1
inactive: dose: 25.0 mg/kg/injection, schedule: Q01DX009 (ip), vehicle: water 94 % of control | dose: 50.0 mg/kg/injection, schedule: Q01DX009 (ip), vehicle: water 93 % of control | dose: 100.0 mg/kg/injection, schedule: Q01DX009 (ip), vehicle: water 100 % of control | dose: 200.0 mg/kg/injection, schedule: Q01DX009 (ip), vehicle: water 94 % of control | dose: 400.0 mg/kg/injection, schedule: Q01DX009 (ip), vehicle: water 101 % of control

Cn1c[n+](C2OC(CO)C(O)C2O)c2nc(N)[nH]c(=O)c21 (stereo not given)
inactive: dose: 50.0 mg/kg/injection, schedule: Q01DX001 (ip), vehicle: carboxymethylcellulose (CMC) 92 % of control | [10] 92 % of control | [11] 97 % of control | [12] 93 % of control

C[n+]1ccc(/C=C/c2ccc(Cl)c(Cl)c2)cc1
inactive: dose: 3.0 mg/kg/injection, schedule: Q01DX009 (ip), vehicle: Klucel (hydroxypropylcellulose) (HPC) 105 % of control | dose: 6.0 mg/kg/injection, schedule: Q01DX009 (ip), vehicle: Klucel (hydroxypropylcellulose) (HPC) 93 % of control | dose: 12.0 mg/kg/injection, schedule: Q01DX009 (ip), vehicle: Klucel (hydroxypropylcellulose) (HPC) 93 % of control | dose: 12.5 mg/kg/injection, schedule: Q04DX003 (ip), vehicle: Klucel (hydroxypropylcellulose) (HPC) 104 % of control

CCCCCCCCOc1ccc(/C=N\N=C\c2ccc(OCCCCCCCC)cc2)cc1
inactive: dose: 100.0 mg/kg/injection, schedule: Q01DX009 (ip), vehicle: saline with Tween-80 105 % of control | dose: 200.0 mg/kg/injection, schedule: Q01DX009 (ip), vehicle: saline with Tween-80 91 % of control | dose: 400.0 mg/kg/injection, schedule: Q01DX009 (ip), vehicle: saline with Tween-80 92 % of control

N#CC(c1ccc(N)cc1)c1ccc(F)cc1 (stereo not given)
inactive: dose: 50.0 mg/kg/injection, schedule: Q01DX001 (ip), vehicle: saline 97 % of control | [6] 97 % of control | [7] 97 % of control

CCCCCCCC[Se]CCCCCCCC
inactive: dose: 100.0 mg/kg/injection, schedule: Q04DX003 (ip), vehicle: saline with Tween-80 111 % of control | dose: 200.0 mg/kg/injection, schedule: Q04DX003 (ip), vehicle: saline with Tween-80 103 % of control | dose: 400.0 mg/kg/injection, schedule: Q04DX003 (ip), vehicle: saline with Tween-80 103 % of control

CCOC(=O)c1ccc(NC(=O)Sc2ccccc2C)cc1
inactive: dose: 100.0 mg/kg/injection, schedule: Q04DX002 (ip), vehicle: saline 120 % of control | dose: 200.0 mg/kg/injection, schedule: Q04DX002 (ip), vehicle: saline 120 % of control | dose: 400.0 mg/kg/injection, schedule: Q04DX002 (ip), vehicle: saline 87 % of control
